# Measured values published in patent US20210198277A1, “AMINE-SUBSTITUTED ARYL OR HETEROARYL COMPOUNDS” (Epizyme, Inc., priority 2016, published 2021).
# Like-named read-outs stand apart in the source and are kept apart here.
# What was measured:
# human EHMT2 913-1193 = target: T1, human EHMT2 913-1193 (Homo sapiens, UniProt Q96KQ7); test: EHMT2 enzyme assay on histone peptide substrate (EHMT2 PEP); assay type: biochemical
# T1 construct: recombinant purified human EHMT2 913-1193, Viva; purchased Viva
# T1 sequence (Q96KQ7 913-1193): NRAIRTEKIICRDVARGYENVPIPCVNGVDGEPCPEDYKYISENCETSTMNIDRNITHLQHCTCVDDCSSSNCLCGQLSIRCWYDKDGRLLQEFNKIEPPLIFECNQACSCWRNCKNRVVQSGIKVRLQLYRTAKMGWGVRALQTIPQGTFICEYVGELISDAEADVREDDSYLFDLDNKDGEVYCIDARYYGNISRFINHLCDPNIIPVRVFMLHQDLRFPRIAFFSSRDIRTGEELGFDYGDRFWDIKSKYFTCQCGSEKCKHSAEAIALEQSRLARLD
# Outline: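 Compounds were tested as 3-fold dilutions, 10 points from a 50 μM final top (2% DMSO), after 30-min preincubation with 0.031 nM enzyme in Bicine buffer pH 7.5. Transfer of ^3H-methyl from ^3H-SAM to biotinylated histone peptide ran 60 min at room temperature and was detected by streptavidin Flashplate scintillation.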
# EHMT1 = target: T2, EHMT1 (Homo sapiens, UniProt Q9H9B1); test: EHMT1 enzyme assay on peptide substrate (EHMT1 PEP); assay type: biochemical
# T2 sequence (Q9H9B1 1-1298): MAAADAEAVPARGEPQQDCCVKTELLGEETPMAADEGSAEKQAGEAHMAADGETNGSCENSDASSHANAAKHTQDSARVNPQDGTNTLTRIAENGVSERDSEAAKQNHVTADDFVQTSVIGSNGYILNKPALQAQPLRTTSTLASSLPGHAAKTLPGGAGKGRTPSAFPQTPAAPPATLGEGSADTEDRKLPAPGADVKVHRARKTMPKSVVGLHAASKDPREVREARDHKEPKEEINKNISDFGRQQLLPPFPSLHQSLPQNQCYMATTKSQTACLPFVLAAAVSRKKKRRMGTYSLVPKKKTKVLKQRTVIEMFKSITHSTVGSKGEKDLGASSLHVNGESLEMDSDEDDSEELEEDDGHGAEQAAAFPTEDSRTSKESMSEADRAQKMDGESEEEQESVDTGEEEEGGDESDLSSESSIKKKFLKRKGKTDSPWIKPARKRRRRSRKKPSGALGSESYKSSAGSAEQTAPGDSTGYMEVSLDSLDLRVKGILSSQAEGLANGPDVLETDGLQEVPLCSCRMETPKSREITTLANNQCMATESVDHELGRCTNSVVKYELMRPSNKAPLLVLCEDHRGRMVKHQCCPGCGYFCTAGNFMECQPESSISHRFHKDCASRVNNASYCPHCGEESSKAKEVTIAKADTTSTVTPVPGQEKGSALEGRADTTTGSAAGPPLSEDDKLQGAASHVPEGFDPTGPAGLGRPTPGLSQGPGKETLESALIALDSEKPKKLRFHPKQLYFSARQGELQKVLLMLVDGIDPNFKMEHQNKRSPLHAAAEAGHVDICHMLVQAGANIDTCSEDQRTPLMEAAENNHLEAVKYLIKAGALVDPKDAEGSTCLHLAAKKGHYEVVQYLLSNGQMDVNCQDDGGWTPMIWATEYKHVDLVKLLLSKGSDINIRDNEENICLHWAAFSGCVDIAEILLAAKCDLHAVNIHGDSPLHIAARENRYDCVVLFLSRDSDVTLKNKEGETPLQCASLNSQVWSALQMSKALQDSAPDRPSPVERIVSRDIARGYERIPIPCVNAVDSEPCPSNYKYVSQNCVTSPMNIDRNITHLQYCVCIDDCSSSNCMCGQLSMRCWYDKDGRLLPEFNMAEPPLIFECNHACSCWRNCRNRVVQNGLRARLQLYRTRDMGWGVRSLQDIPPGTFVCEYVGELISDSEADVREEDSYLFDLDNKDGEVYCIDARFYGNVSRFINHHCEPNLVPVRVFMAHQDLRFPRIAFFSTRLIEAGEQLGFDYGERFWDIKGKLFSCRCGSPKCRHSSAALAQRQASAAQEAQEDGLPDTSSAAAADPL
# [1] = recombinant human EHMT2 913-1193, histone H3 1-15 peptide, balanced conditions, read-out: EHMT2 PEP (IC50 μM)
# [2] = Table VII, read-out: EHMT2 PEP IC50
# [3] = Table VII, read-out: EHMT1 PEP IC50
SMILES,IC50 (human EHMT2 913-1193; [1]) [µM],IC50 (EHMT1; read-out: EHMT1 PEP (IC50 μM)) [µM],IC50 (human EHMT2 913-1193; [2]) [µM],IC50 (EHMT1; [3]) [µM]
CNc1cc(C)nc(Nc2cc(Cl)c(OC)c(OCCCN3CCCC3)c2)n1 [Compound 496],1 to 10,0.1 to 1,–,–
"CNc1cc(C)nc(Nc2ccc(OC)c(OC[C@H]3CCN(C4CC4)C3)c2)n1 (single isomer, unassigned) [Compound 482]",0.1 to 1,0.1 to 1,–,–
COc1ccc(Nc2nc(C)cc3[nH]ccc23)cc1OCCCN1CCCC1 [Compound 486],> 10,> 10,–,–
"CCCCNc1nccc(NC)n1 [Compound 543, N^2-butyl-N^4-methylpyrimidine-2,4-diamine]",> 10,> 10,–,–
CNc1cc(C)nc(Nc2ccc(OC)c(OC[C@H]3C[C@@H](N(C)C)C3)c2)n1 [Compound 468],1 to 10,0.1 to 1,–,–
CCn1nc(Nc2nccc3[nH]ccc23)cc1COCCN1CCCC1 [Compound 471],1 to 10,1 to 10,–,–
COc1cnc(Nc2nccc3[nH]ccc23)cc1OCCCN1CC2CC2C1 (centres unmarked) [Compound 507],< 0.1,< 0.1,–,–
"CNc1cc(C)nc(Nc2ccc(OC)c(OCC3CCN(CCO)C3)c2)n1 (centres unmarked) [Compound 461, 2-(3-((2-methoxy-5-((4-methyl-6-(methylamino)pyrimidin-2-yl)amino)phenoxy)methyl)pyrrolidin-1-yl)ethan-1-ol]",< 0.1,< 0.1,–,–
CNc1cc(C)nc(Nc2cc(OC[C@@H]3CCN(C)C3)c(OC)cn2)c1 [Compound 475],0.1 to 1,< 0.1,–,–
"CNc1ccnc(Nc2ccc(OC)c(OCCOC3CC3)c2)n1 [Compound 453, N^2-(3-(2-cyclopropoxyethoxy)-4-methoxyphenyl)-N^4-methylpyrimidine-2,4-diamine]",> 10,> 10,–,–
CNc1cc(C)nc(Nc2ccc(OC)c(CNCCNC3CCC3)c2)n1 [Compound 1109],–,–,1 to 10,0.1 to 1
"CNc1cc(C)nc(Nc2ccc(OC)c(OCCCN3CCC4(CC4)C3)c2)n1 [Compound 498, N^2-(3-(3-(5-azaspiro[2.4]heptan-5-yl)propoxy)-4-methoxyphenyl)-N^4,6-dimethylpyrimidine-2,4-diamine]",1 to 10,0.1 to 1,–,–
COc1cnc(Nc2nc(C)cc3[nH]ccc23)cc1OCC1CCN(C2CC2)C1 (centres unmarked) [Compound 494],< 0.1,< 0.1,–,–
CNc1cc(C2CCOCC2)c2cc(OC)c(OC[C@H](O)CN3CCC3)cc2n1 [Compound 1108],–,–,< 0.1,< 0.1
CNc1cc(C)nc(Nc2ccc(OC)c(OC(C#N)CCN3CCCC3)c2)n1 (centres unmarked) [Compound 489],1 to 10,0.1 to 1,–,–
CNc1cc(C)nc(Nc2ccc(OC)c(OCC3CN(C4CC4)C3)c2)n1 [Compound 510],0.1 to 1,< 0.1,–,–
COc1cc2c(C3CCN(C)CC3)nc(N3CCC(F)(F)CC3)nc2cc1OCCCN1CCCC1 [Compound 528],0.1 to 1,0.1 to 1,–,–
CCc1ncc(Nc2nc(C)cc(NC)n2)cc1OCCCN1CCCC1 [Compound 515],1 to 10,1 to 10,–,–
CNc1cc(C)nc(Nc2cnc(C3CC3)c(OCCCN3CCCC3)c2)n1 [Compound 516],1 to 10,1 to 10,–,–

SMILES,IC50 (human EHMT2 913-1193; [1]) [µM],IC50 (EHMT1; read-out: EHMT1 PEP (IC50 μM)) [µM],IC50 (human EHMT2 913-1193; [2]) [µM],IC50 (EHMT1; [3]) [µM]
CNc1cc(C)nc(Nc2ccc(OC)c(OC[C@@H](O)CN3CCCC3)c2)n1 [Compound 1044],–,–,0.1 to 1,0.1 to 1
CNc1ccnc(Nc2ccc(OC)c(OC[C@@H](O)CN3CCC3)c2)n1 [Compound 1046],–,–,1 to 10,1 to 10
CNc1ccnc(Nc2ccc(OC)c(OCc3nnc(C4CC4)[nH]3)c2)n1 [Compound 478],> 10,> 10,–,–
CNc1ccnc(Nc2ccc(OC)c(OCc3ncn(C4CC4)n3)c2)n1 [Compound 480],> 10,> 10,–,–
CNc1cc(C)nc(Nc2ccc(OC)c([C@H]3C[C@@H]3CN(C)C)c2)n1 [Compound 487],1 to 10,0.1 to 1,–,–
"COc1ccc(Nc2nc(C)cc(NCC3CCOCC3)n2)cc1OCC1CCN(C2CC2)C1 (centres unmarked) [Compound 462, N^2-(3-((1-cyclopropylpyrrolidin-3-yl)methoxy)-4-methoxyphenyl)-6-methyl-N^4-((tetrahydro-2H-pyran-4-yl)methyl)pyrimidine-2,4-diamine]",< 0.1,< 0.1,–,–
CNc1cc(C(C)C)nc(Nc2ccc(OC)c(OCCCN3CCCC3)c2)n1 [Compound 483],< 0.1,< 0.1,–,–
"CNc1nc(C2CCCCC2)c2cc(OC)c(OCCCN3CCCC3)cc2n1 [Compound 523, 4-cyclohexyl-6-methoxy-N-methyl-7-(3-(pyrrolidin-1-yl)propoxy)quinazolin-2-amine]",1 to 10,1 to 10,–,–
CNc1cc(C)nc(Nc2ccc(OC)c(OC[C@H]3C[C@H](N(C)C)C3)c2)n1 [Compound 470],> 10,1 to 10,–,–
CNc1cc(C)nc(Nc2ccc(OC)c(OCC3CCN(C4CC4)C3)c2)n1 (centres unmarked) [Compound 457],< 0.1,< 0.1,–,–
CNc1cc(C)nc(Nc2ccc(OC)c(OCC3CCCN(C4CC4)C3)c2)n1 (centres unmarked) [Compound 517a],0.1 to 1,0.1 to 1,–,–
COc1cc2c(C3CCN(C)CC3)nc(NC3CCCC3)nc2cc1OCCCN1CCCC1 [Compound 529],< 0.1,< 0.1,–,–
COc1cnc(Nc2nc(C)cc3[nH]c(C)cc23)cc1OCCCN1CCCC1 [Compound 485],< 0.1,< 0.1,–,–
CNc1cc(C)nc(Nc2ccc(OC)c(OC3CCN(C)CC3)c2)n1 [Compound 455],> 10,> 10,–,–
CNc1cc(Nc2cc(OC[C@@H]3CCN(C)C3)c(OC)cn2)nc(C)n1 [Compound 473],1 to 10,0.1 to 1,–,–
CNc1cc(C)nc(Nc2ccc(OC)c(OC[C@H]3CCCN(C4CC4)C3)c2)n1 [Compound 517b],0.1 to 1,0.1 to 1,–,–
CNc1cc(C)nc(Nc2ccc(OC)c(OCCCCN(C)C)c2)n1 [Compound 502],1 to 10,0.1 to 1,–,–
"CNc1cc(C)nc(Nc2ccc(OC)c(OC[C@@H]3CCN(C4CC4)C3)c2)n1 (single isomer, unassigned) [Compound 481]",< 0.1,< 0.1,–,–
